This passage reports IC50 results from ChEMBL document CHEMBL3638545 (2015).

Sequence of Sodium channel protein type 5 subunit alpha (Q14524 whole entry): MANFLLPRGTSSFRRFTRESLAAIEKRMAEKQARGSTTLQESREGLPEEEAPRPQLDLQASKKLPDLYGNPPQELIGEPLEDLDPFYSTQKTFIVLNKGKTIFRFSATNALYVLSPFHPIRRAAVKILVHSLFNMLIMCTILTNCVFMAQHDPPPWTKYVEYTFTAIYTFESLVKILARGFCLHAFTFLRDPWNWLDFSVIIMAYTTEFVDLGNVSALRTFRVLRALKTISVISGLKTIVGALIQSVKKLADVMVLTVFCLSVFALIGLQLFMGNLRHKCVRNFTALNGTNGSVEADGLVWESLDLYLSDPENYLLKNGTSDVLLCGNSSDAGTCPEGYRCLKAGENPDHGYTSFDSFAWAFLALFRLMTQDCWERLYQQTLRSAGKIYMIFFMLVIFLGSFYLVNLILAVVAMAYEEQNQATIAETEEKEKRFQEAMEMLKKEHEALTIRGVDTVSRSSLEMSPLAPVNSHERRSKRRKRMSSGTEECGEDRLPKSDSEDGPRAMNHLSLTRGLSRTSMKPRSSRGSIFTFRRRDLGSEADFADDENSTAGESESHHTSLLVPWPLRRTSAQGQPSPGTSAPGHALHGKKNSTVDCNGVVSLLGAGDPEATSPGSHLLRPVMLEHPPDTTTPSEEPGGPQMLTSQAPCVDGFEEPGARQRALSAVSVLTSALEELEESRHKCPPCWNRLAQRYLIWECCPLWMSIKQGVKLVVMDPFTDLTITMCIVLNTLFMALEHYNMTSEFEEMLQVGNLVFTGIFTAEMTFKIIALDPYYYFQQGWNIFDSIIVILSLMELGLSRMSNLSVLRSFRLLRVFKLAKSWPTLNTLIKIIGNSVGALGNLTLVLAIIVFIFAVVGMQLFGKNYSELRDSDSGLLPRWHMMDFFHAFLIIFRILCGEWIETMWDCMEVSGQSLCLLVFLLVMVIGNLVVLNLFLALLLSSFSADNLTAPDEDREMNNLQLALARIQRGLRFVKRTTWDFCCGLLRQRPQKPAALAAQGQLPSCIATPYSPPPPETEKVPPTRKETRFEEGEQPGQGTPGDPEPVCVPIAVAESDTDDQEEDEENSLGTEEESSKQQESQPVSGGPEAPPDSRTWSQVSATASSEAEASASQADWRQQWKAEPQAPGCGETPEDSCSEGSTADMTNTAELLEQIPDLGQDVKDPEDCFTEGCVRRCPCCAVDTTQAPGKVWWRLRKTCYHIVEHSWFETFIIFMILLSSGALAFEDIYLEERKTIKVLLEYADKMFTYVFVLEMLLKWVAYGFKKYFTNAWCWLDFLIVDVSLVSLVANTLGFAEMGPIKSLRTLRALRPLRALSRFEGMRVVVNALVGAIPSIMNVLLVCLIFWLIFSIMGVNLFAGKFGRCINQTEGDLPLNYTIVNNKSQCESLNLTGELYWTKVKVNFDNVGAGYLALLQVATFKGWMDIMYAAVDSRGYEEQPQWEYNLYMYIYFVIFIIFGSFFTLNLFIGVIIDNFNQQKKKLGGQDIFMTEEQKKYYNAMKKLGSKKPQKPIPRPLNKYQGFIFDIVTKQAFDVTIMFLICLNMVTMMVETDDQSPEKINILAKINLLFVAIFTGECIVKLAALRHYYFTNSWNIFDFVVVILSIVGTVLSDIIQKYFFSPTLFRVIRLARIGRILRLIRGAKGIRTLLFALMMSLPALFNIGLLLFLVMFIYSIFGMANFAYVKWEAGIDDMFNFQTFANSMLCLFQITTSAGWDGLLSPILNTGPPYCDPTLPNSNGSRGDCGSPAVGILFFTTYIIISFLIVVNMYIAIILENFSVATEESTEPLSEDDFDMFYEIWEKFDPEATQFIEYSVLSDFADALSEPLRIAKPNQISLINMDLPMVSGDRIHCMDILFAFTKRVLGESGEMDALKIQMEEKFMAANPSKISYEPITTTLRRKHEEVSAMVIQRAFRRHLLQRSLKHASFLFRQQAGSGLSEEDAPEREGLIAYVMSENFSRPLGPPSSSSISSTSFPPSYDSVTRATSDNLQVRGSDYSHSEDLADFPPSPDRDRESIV

The experiment concerns the target Sodium channel protein type 5 subunit alpha (Homo sapiens, UniProt Q14524). In words: Electrophysiological Assay: Patch voltage clamp electrophysiology allows for the direct measurement and quantification of block of voltage-gated sodium channels (NaV's), and allows the determination of the time- and voltage-dependence of block which has been interpreted as differential binding to the resting, open, and inactivated states of the sodium channel (Hille, B., Journal of General …. The format is cell-based, HEK293.
In general, IC50 refers to the concentration needed to halve the response being measured. For `CN(C)S(=O)(=O)NC(=O)c1cc(Cl)c(OCC23CC4CC(CC(C4)C2)C3)cc1F`, the IC50 is 772 nM.

In turn, `COCCS(=O)(=O)NC(=O)c1cc(C2CC2)c(OCC23CC4CC(CC(C4)C2)C3)cc1F` came in with a half-inhibitory concentration (IC50) of 101 nM. To `CC1(C)CCc2cc(OCc3cc(F)c(C(=O)NS(=O)(=O)N4CCC4)cc3Cl)ccc2O1` belongs 653 nM; to `CS(=O)(=O)NC(=O)c1cc(C2CC2)c(OCC23CC4CC(C2)C(F)(F)C(C4)C3)cc1F`, 714 nM; to `O=C(NS(=O)(=O)N1CCOCC1)c1cc(C2CC2)c(OCC23CC4CC(CC(C4)C2)C3)cc1F`, 14 nM. The compound `O=C(NS(=O)(=O)N1CCC1)c1cc(C2CC2)c(OCC23CC4(F)CC(F)(CC(F)(C4)C2)C3)cc1F` returned an IC50 of 950 nM. In turn, `O=C(NS(=O)(=O)N1CCC1)c1cc(C2CC2)c(OCC2(C(F)(F)F)CCCCC2)cc1F` came in with an IC50 of 350 nM.
